Like-named read-outs stand apart in the source and are kept apart here.
Columns and labels:
[1] = tested on: CD8+ CTL clone SKH-13; type: cell-based, human
[2] = tested on: HSV-2; assay: Quantitative real-time PCR (TaqMan) of HSV levels in fibroblasts and CTL; type: cell-based
Description: Quantitative Real-Time PCR Using TaqMan® Chemistry: CTL were incubated with uninfected or HSV-infected fibroblasts for 4 h, removed by aspiration, and incubated for 5 h at 37° C. In the acyclovir group, fibroblasts were treated with 50 μM acyclovir for 2 h prior to infecting with HSV for 6 h. Removed CTL were then incubated with CD8-conjugated Dynabeads® (Dynal A.S., Oslo, Norway) for 30 m rocking at 4° C. and washed as directed by the manufacturer. DNA was purified from uninfected fibroblasts, HSV-infected fibroblasts, and CD8 enriched CTL using DNeasy® Tissue Kits (Qiagen, Valencia, Calif.). DNA was quantified by spectrophotometry and used as template in TaqMan® real-time PCR reactions with primers and fluorogenic probes specific for the HSV glycoprotein B gene or the cellular beta-globin gene. Reactions were carried out using an ABI 7700 Sequencer (Applied Biosystems, Foster City, Calif.), and the sequences and concentrations of the primers and probes used were as previously described (Liu et al., J. Virol. 75:11178, 2001).
The most sensitive technique available to detect the presence of HSV is real-time, quantitative PCR. Primers and probes against a viral gene (gB) and a cellular gene (beta globin) were used to determine the number of HSV copies per cell in HSV-infected fibroblasts and in inactivated CTL. […]

[3] = tested on: CTL; assay: Mitochondrial potential of CTL by MitoTracker Red CMXRos flow cytometry; type: cell-based, human; settings: 1 μM, 4 h, CTL without fibroblasts
Description: Mitochondrial potential was assessed in untreated CTL, CTL treated with 1 μM staurosporine (Sigma, St. Louis, Mo.) for 4 h, CTL incubated with uninfected fibroblasts (control) for 4 h, and CTL incubated with HSV-infected fibroblasts (inactivated) for 4 h. CTL were then stained using MitoTracker® Red CMXRos as per the manufacturer's instructions (Molecular Probes, Inc., Eugene, Oreg.). Control and inactivated CTL were also stained with antibody against CD95/Fas (clone DX2, Dako, Carpinteria, Calif.) and with the DNA-binding dye 7-amino-actinomycin D (7-AAD, Sigma, St. Louis, Mo.) and analyzed by flow cytometry.

[4] = tested on: HSV-inactivated T cells; type: cell-based, human
[5] = tested on: CTL; assay: Redirected cell lysis of 51Cr-labeled FcγR+ P815 target cells by anti-CD3-labeled CTL; type: cell-based, human; settings: antibody 1 μg/ml for 15 m; control vs inactivated CTL; 5 h
[6] = tested on: T cells; type: cell-based, human

C[C@@H]1C[C@@H]([C@H](O)CC2CC(=O)NC(=O)C2)C(=O)[C@@H](C)C1 [CHX, cyclohexamide]
Effect on HSV-mediated inactivation of CTL ([1]; CTL (5 h prior) or targets exposed to 10 μg/ml): no effect on HSV-mediated inactivation | Effect on HSV-mediated inactivation of CTL ([1]; fibroblasts treated with 10 μg/ml for 10 h prior to infection): abolished HSV-mediated inactivation

Nc1nc2c(ncn2COCCO)c(=O)[nH]1 [acyclovir]
# HSV Copies/cell ([2]; CTL incubated 4 h on HSV-2-infected fibroblasts treated with 50 μM acyclovir, CD8-bead enriched): 0.16 Copies/cell | HSV copies detected per CTL ([2]; fibroblasts treated with 50 μM acyclovir prior to infection, inactivated CTL): 1 copy of HSV was detected per 6 CTL

C/C=C/[C@H]1O[C@@](O)([C@@H](C)[C@H](O)[C@H](C)[C@H]2OC(=O)/C(OC)=C/C(C)=C/[C@@H](C)[C@@H](O)[C@@H](CC)[C@@H](O)[C@H](C)C/C(C)=C/C=C/[C@@H]2OC)C[C@@H](O)[C@@H]1C [concanamycin]
51Cr release from target cells by SKH-13 CTL clone [1]: prevented ^51Cr release from target cells

CN[C@@H]1C[C@H]2O[C@@](C)([C@@H]1OC)n1c3ccccc3c3c4c(c5c6ccccc6n2c5c31)C(=O)NC4 [staurosporine]
CMXRos signal (mitochondrial membrane potential) in CTL [3]: significant decrease in the CMXRos signal

IL-15: human recombinant IL-15 (Peprotech)
Restoration of lytic function to HSV-inactivated T cells [4]: not to restore lytic function

OKT3: monoclonal antibody raised against CD3 (clone OKT3, Ortho-McNeil)
Lytic granule release via redirected lysis [5]: Control but not inactivated CTL were capable of lytic granule release | TNF-α and IFN-γ synthesis by inactivated T cells [6]: failed to synthesize TNF-α and IFN-γ

B1: IL-7: human recombinant IL-7 (RnDSystems) (protein, UniProt P13232 26-177, looked up)
Interleukin-7: DCDIEGKDGKQYESVLMVSIDQLLDSMKEIGSNCLNNEFNFFKRHICDANKEGMFLFRAARKLRQFLKMNSTGDFDLHLLKVSEGTTILLNCTGQVKGRKPAALGEAQPTKSLEENKSLKEQKKLNDLCFLKRLLQEIKTCWNKILMGTKEH
Restoration of lytic function to HSV-inactivated T cells [4]: not to restore lytic function

— US20070154464A1, “Methods for screening for agents capable of modulating t lymphocyte function in response to a herpes simplex virus-infected cell” (priority 2003, published 2007)
